Test results: patent US20230014445A1, “ALLOSTERIC CHROMENONE INHIBITORS OF PHOSPHOINOSITIDE 3-KINASE (PI3K) FOR THE TREATMENT OF DISEASE” (Petra Pharma Corporation, priority 2021, published 2023)
Where two headings read alike, the source gives them in different places.

Legend:
[1] = biological target: T1, human full length PIK3KA Wild-type (p110α/p85α complex) (Homo sapiens, UniProt P42336); test: PI3K-Alpha Kinase (PIK3CA) biochemical activity, wild-type (ADP-Glo); conditions: 20 uM ATP
T1 construct: Recombinant, catalytically active human full length PIK3KA Wild-type and H1047R mutant were purchased; 6xHis (N); purchased EMD Millipore Sigma 14-602M
In short: (§1)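 ADP formation, measured by ADP-Glo luminescence after reaction to about 10% ATP conversion at 27° C., gives 10-point 4-parameter IC50 curves normalized to no-enzyme and DMSO controls. Lipid substrate was PIP2diC8 or Soy PI at 50 uM, with 20 uM ATP. WT or H1047R p110α/p85α complex (1-5 nM) was preincubated 1 h with compound.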

[2] = biological target: T2, human full length PIK3KA H1047R mutant (p110α/p85α complex) (Homo sapiens, UniProt P42336, H1047R); test: PI3K-Alpha Kinase (PIK3CA) biochemical activity, H1047R mutant (ADP-Glo); conditions: 20 uM ATP
T2 construct: Recombinant, catalytically active human full length PIK3KA Wild-type and H1047R mutant were purchased; 6xHis (N); purchased EMD Millipore Sigma 14-792M
T2 sequence (P42336 whole entry H1047R): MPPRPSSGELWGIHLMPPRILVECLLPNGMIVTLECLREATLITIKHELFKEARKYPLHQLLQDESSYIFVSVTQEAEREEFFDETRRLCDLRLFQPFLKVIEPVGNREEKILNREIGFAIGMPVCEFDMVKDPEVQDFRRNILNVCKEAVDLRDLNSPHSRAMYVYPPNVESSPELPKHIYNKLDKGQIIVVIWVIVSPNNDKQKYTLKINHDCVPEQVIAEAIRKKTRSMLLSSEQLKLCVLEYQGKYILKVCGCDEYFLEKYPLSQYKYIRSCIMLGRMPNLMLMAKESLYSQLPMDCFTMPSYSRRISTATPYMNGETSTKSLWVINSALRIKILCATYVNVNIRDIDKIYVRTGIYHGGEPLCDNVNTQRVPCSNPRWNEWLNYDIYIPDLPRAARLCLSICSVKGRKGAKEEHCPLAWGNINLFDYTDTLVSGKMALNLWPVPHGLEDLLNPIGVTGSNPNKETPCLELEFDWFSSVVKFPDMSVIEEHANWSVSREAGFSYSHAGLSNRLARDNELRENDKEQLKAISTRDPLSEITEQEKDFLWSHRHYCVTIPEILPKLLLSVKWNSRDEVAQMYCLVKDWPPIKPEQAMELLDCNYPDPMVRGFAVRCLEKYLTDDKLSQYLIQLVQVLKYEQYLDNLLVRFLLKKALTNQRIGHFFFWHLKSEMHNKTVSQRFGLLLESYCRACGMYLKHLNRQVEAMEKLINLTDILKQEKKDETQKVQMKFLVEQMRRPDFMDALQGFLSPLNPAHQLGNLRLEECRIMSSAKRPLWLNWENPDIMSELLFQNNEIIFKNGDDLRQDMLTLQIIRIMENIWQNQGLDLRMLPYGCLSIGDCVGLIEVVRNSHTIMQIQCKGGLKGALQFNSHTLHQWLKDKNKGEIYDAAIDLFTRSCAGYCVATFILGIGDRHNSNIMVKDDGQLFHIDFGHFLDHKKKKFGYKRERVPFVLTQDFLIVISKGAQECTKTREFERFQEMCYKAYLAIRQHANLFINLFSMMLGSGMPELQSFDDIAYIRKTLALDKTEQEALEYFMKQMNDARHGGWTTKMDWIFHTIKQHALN
T2 sequence (P27986 whole entry partner): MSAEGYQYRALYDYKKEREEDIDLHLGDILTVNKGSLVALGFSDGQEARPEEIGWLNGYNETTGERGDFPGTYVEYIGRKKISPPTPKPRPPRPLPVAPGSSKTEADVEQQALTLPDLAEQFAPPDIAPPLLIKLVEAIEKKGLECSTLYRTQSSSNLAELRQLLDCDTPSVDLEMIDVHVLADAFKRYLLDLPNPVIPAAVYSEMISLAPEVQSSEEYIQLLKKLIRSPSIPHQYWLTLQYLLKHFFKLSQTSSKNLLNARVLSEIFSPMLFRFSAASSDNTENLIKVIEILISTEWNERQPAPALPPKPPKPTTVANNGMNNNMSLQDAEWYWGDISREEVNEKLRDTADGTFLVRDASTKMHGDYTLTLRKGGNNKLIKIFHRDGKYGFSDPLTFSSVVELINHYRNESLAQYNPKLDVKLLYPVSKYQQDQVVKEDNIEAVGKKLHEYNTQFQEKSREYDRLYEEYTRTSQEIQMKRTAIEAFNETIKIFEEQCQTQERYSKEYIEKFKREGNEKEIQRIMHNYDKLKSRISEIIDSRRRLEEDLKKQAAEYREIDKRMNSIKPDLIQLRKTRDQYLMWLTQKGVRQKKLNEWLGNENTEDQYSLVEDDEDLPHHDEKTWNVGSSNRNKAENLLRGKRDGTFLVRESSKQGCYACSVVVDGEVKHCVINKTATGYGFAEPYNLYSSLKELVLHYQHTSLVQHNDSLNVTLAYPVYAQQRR
In short: as §1

[3] = biological target: PI3K-α (PIK3CA) in MDA-MB-453 cells (Homo sapiens, UniProt P42336); test: PI3K-Alpha Kinase (PIK3CA) activity in vitro cell based assay (AlphaLisa SureFire)
PI3K-α (PIK3CA) in MDA-MB-453 cells, sequence (P42336 whole entry): as the sequence (P42336 whole entry H1047R) above, with R1047H counted along it
PI3K-α (PIK3CA) in MDA-MB-453 cells, sequence (P27986 2-724, further chain): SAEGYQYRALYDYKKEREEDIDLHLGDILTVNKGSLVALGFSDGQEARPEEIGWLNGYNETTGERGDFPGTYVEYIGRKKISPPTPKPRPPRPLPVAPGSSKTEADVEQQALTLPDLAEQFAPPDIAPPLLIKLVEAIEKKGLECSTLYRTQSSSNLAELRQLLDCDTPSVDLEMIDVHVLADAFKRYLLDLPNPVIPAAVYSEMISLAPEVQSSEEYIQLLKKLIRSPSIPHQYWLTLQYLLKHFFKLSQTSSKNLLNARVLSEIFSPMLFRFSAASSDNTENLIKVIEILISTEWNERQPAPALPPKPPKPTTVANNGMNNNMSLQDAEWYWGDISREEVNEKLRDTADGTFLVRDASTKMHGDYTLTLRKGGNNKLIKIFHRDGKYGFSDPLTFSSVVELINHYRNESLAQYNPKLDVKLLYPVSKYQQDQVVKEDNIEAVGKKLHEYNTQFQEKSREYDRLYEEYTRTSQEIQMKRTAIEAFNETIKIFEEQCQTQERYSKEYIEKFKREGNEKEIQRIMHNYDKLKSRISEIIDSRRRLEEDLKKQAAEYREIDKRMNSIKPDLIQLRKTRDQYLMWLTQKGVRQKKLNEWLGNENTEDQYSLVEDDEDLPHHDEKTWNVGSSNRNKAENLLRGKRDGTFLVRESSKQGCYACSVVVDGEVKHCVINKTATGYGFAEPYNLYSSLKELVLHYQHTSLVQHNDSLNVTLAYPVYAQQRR
Procedure: PI3K-Alpha Kinase (PIK3CA) Activity In Vitro Cell Based Assay and Determining IC50 Values for Inhibitors
The MDA-MB-453 (ATCC-HTB-131) cell line was obtained from the American Type Culture Collection (Manassas, Va.). Cells were maintained in Dulbecco's Modified Eagle Media (DMVEM, Gibco 11965-092) supplemented with 10% Fetal Bovine Serum, heat inactivated (FBS HI, Gibco 10082-147), 1× non-essential amino acids (NEAA, Gibco 11140-050), and 1 mM sodium pyruvate (Gibco 11360-070). Cultures were maintained in a humidified incubator at 37° C. under […].
For compound testing in 0% FBS, MDA-MB-453 cells were seeded at a density of 1.5×10^4 cells per well in white 384-well plates in 20 μl of Minimum Essential Media (MEM) assay media with 1×NEAA, 1 mM sodium pyruvate, and 1 μg/mL human insulin (Sigma I9278). Compounds dissolved in 10 mM stock solutions in DMSO were serially diluted 1:3 in DMSO to generate a 10-point dilution series and plated using an acoustic liquid handler system (Echo 550 Series Liquid Handler, Labcyte). A 5× intermediate compound dilution plate in MEM with 1×NEAA and 1 mM sodium pyruvate (150 μM starting compound concentration in 1.5% DMSO) was then prepared. Five μl of the intermediate serially diluted compounds were added to the cell plate to final concentrations ranging from […] in 0.3% DMSO. 0.3% DMSO alone was used to establish the maximum (MAX) signal and GDC-0032 at a final concentration of 1 μM was used as a reference compound for the minimum (MIN) signal. After 3 hours treatment, the medium was removed, and the cells lysed in 10 μL of 1× SureFire Lysis buffer with shaking for 10 minutes at room temperature. The Acceptor Mix (Reaction Buffer 1+Reaction Buffer 2+Activation Buffer+SureFire Ultra Acceptor Beads) was prepared by diluting Activation buffer 25-fold in combined Reaction Buffer 1 and Reaction Buffer 2. The Acceptor beads were diluted 50-fold in the combined Reaction Buffers. Five μL of Acceptor Mix was added to each well, the plate was sealed and covered with foil and incubated for 1 hour at room temperature. The Donor Mix (dilution buffer+SureFire Ultra Donor Beads) was prepared by diluting Donor Beads 50-fold in dilution buffer. Five μL of the Donor Mix was added to each well and the plate sealed and covered with foil and incubated for 1 hour at room temperature in the dark. The plates were read on a Neo2 plate reader instrument from Biotek using standard AlphaLisa settings.
Compounds were tested in duplicate and the average % inhibition at each compound concentration was used to generate a single dose response curve. The data were processed using the Genedata-Screener tool. Relative IC50 values were determined using luminescence units by calculating percent inhibition with respect to the in-plate “MIN” (GDC-0032 reference control) and “MAX” (DMSO) controls. The data was analyzed using a 4-parameter nonlinear logistic equation (four-parameter logistic concentration-response curve):
Y=bottom+[(top−bottom)/1+(X/IC50)slope]
where Y=% inhibition, X=concentration of inhibitor, bottom=minimum value of y attained by curve-fit, top=maximum value of y attained by curve-fit and slope=steepness of curve at the IC50.
% Inhibition=[(signal at X−median Min)/(median Max−median Min)]×100
IC50: concentration of compound that reduces a given response (ligand binding, enzyme response) by 50%. Relative IC50: concentration giving half the compound's maximum response.
For IC50 values shown in Table B, “A” means IC50<50 nM; “B” means IC50 ranging between 50 nM and 100 nM; “C” means IC50 ranging between 100 nM and 500 nM; “D” means IC50>500 nM.

[4] = read-out: PI3K-α (PIK3CA) in vitro cell based assay IC50, 0% FBS, 3 hours treatment
[5] = 0% FBS, 3 hours treatment, read-out: PI3K-α (PIK3CA) in vitro cell based assay IC50

| Structure (SMILES) | IC50 [3, 5] [µM] | IC50 ([1]; PIP2diC8 lipid substrate) [µM] | IC50 ([2]; PIP2diC8 lipid substrate) [µM] | IC50 ([1]; Soy PI lipid substrate) [µM] | IC50 ([2]; Soy PI lipid substrate) [µM] | IC50 [3, 4] [µM] |
| --- | --- | --- | --- | --- | --- | --- |
| COc1ccc(-c2oc3c(C(C)Nc4ccccc4C(=O)O)cc(C)cc3c(=O)c2C)cn1 (single isomer, unassigned) [Example 65, 2-[1-[2-(6-Methoxy-3-pyridyl)-3,6-dimethyl-4-oxo-chromen-8-yl]ethylamino]benzoic acid, Isomer 1,2,2,2-trifluoroacetic acid] |  |  |  | 1 to 5 | < 0.5 | < 0.05 |
| COc1ncc(-n2cc(-c3oc4c(C(C)Nc5ccccc5C(=O)O)cc(C)cc4c(=O)c3C)cn2)cn1 (single isomer, unassigned) [Example 72, 2-[1-[2-[1-(2-Methoxypyrimidin-5-yl)pyrazol-4-yl]-3,6-dimethyl-4-oxo-chromen-8-yl]ethylamino]benzoic acid, Isomer 1,2,2,2-trifluoroacetic acid] |  |  |  | 1 to 5 | < 0.5 | 0.05 to 0.1 |
| Cc1cc(C(C)Nc2ccccc2C(=O)O)c2oc(-c3cncc(-n4cccn4)c3)c(C)c(=O)c2c1 (single isomer, unassigned) [Example 127, 2-[1-[3,6-Dimethyl-4-oxo-2-(5-pyrazol-1-yl-3-pyridyl)chromen-8-yl]ethylamino]benzoic acid, Isomer 1,2,2,2-trifluoroacetic acid] |  |  |  | 1 to 5 | < 0.5 | < 0.05 |
| Cc1cc(C(C)Nc2ccccc2C(=O)O)c2oc(-c3cccnc3)c(C)c(=O)c2c1 (single isomer, unassigned; isomer 1) [Example 25, 2-[1-[3,6-Dimethyl-4-oxo-2-(3-pyridyl)chromen-8-yl]ethylamino]benzoic acid, Isomer 1] | < 0.05 |  |  | 0.5 to 1 | < 0.5 |  |
| Cc1cc(C(C)Nc2ccccc2C(=O)O)c2oc(-c3cnc(C)nc3)cc(=O)c2c1 (single isomer, unassigned; isomer 2) [Example 33, 2-[1-[6-Methyl-2-(2-methylpyrimidin-5-yl)-4-oxo-chromen-8-yl]ethylamino]benzoic acid, Isomer 2] | > 0.5 | > 10 | > 10 |  |  |  |
| Cc1cc(C(C)Nc2ccccc2C(=O)O)c2oc(-c3cnn(-c4ccc(C#N)cc4)c3)c(C)c(=O)c2c1 (single isomer, unassigned) [Example 73, 2-[1-[2-[1-(4-Cyanophenyl)pyrazol-4-yl]-3,6-dimethyl-4-oxo-chromen-8-yl]ethylamino]benzoic acid, Isomer 1,2,2,2-trifluoroacetic acid] |  |  |  | 0.5 to 1 | < 0.5 | 0.05 to 0.1 |
| Cc1cc(C(C)Nc2ccccc2C(=O)O)c2oc(-c3cnn(-c4ccccc4)c3)cc(=O)c2c1 (single isomer, unassigned) [Example 80, 2-[1-[6-Methyl-4-oxo-2-(1-phenylpyrazol-4-yl)chromen-8-yl]ethylamino]benzoic acid, Isomer 2,2,2,2-trifluoroacetic acid] |  |  |  | 5 to 10 | < 0.5 | < 0.05 |
| Cc1cc(C(C)Nc2ccc(Cl)nc2C(=O)O)c2oc(-c3ccccn3)c(C)c(=O)c2c1 (single isomer, unassigned; isomer 1) [Example 60, 6-Chloro-3-[1-[3,6-dimethyl-4-oxo-2-(2-pyridyl)chromen-8-yl]ethylamino]pyridine-2-carboxylic acid, Isomer 1] | < 0.05 |  |  | 0.5 to 1 | < 0.5 |  |
| CC(Nc1ccccc1C(=O)O)c1cc(F)cc2c(=O)cc(-c3cnn(-c4cccnc4)c3)oc12 (single isomer, unassigned) [Example 55, 2-[1-[6-Fluoro-4-oxo-2-[1-(3-pyridyl)pyrazol-4-yl]chromen-8-yl]ethylamino]benzoic acid, Isomer 1,2,2,2-trifluoroacetic acid] |  |  |  | 5 to 10 | < 0.5 | 0.1 to 0.5 |
| Cc1cc(C(C)Nc2ccccc2C(=O)O)c2oc(-c3ccc(OC(C)C)nc3)cc(=O)c2c1 (single isomer, unassigned; isomer 1) [Example 30, 2-[1-[2-(6-Isopropoxy-3-pyridyl)-6-methyl-4-oxo-chromen-8-yl]ethylamino]benzoic acid, Isomer 1] | > 0.5 | > 10 | 5 to 10 |  |  |  |

More lines, main results first:

| IC50 [3, 5] [µM] | IC50 ([1]; PIP2diC8 lipid substrate) [µM] | IC50 ([2]; PIP2diC8 lipid substrate) [µM] | Structure (SMILES) | IC50 ([1]; Soy PI lipid substrate) [µM] | IC50 ([2]; Soy PI lipid substrate) [µM] | IC50 [3, 4] [µM] |
| --- | --- | --- | --- | --- | --- | --- |
| < 0.05 |  |  | Cc1cc(C(C)Nc2ccc(Cl)nc2C(=O)O)c2oc(-c3cccnc3)c(C)c(=O)c2c1 (single isomer, unassigned; isomer 1) [Example 115, 6-Chloro-3-[1-[3,6-dimethyl-4-oxo-2-(3-pyridyl)chromen-8-yl]ethylamino]pyridine-2-carboxylic acid, Isomer 1] | 0.5 to 1 | < 0.5 |  |
| < 0.05 |  |  | Cc1cc(C(C)Nc2ccc(C)nc2C(=O)O)c2oc(-c3cncc(F)c3)c(C)c(=O)c2c1 (single isomer, unassigned; isomer 1) [Example 123, 3-[1-[2-(5-Fluoro-3-pyridyl)-3,6-dimethyl-4-oxo-chromen-8-yl]ethylamino]-6-methyl-pyridine-2-carboxylic acid, Isomer 1] | 1 to 5 | < 0.5 |  |
| > 0.5 |  |  | Cc1cc(C(C)Nc2ccccc2C(=O)O)c2oc(-c3ccc(S(C)(=O)=O)nc3)cc(=O)c2c1 (single isomer, unassigned; isomer 1) [Example 39, 2-[1-[6-Methyl-2-(6-methylsulfonyl-3-pyridyl)-4-oxo-chromen-8-yl]ethylamino]benzoic acid, Isomer 1] | > 10 | > 10 |  |
| > 0.5 |  |  | Cc1cc(C(C)Nc2ccccc2C(=O)O)c2oc(-c3ccc(C(F)(F)F)nc3)cc(=O)c2c1 (single isomer, unassigned; isomer 1) [Example 37, 2-[1-[6-Methyl-4-oxo-2-[6-(trifluoromethyl)-3-pyridyl]chromen-8-yl]ethylamino]benzoic acid, Isomer 1] | > 10 | > 10 |  |
| < 0.05 |  |  | Cc1cc(C(C)Nc2ccc(F)cc2C(=O)O)c2oc(-c3cccnc3)c(C)c(=O)c2c1 (single isomer, unassigned; isomer 1) [Example 120, 2-[1-[3,6-Dimethyl-4-oxo-2-(3-pyridyl)chromen-8-yl]ethylamino]-5-fluoro-benzoic acid, Isomer 1] | 1 to 5 | < 0.5 |  |
| < 0.05 |  |  | Cc1c(-c2cncc(F)c2)oc2c(C(C)Nc3ccc(Cl)nc3C(=O)O)cc(C(F)(F)F)cc2c1=O (single isomer, unassigned; isomer 1) [Example 97, 6-Chloro-3-[1-[2-(5-fluoro-3-pyridyl)-3-methyl-4-oxo-6-(trifluoromethyl)chromen-8-yl]ethylamino]pyridine-2-carboxylic acid, Isomer 1] | 1 to 5 | < 0.5 |  |
